ChEMBL document CHEMBL1155864, “N-Acyl-3-amino-5H-furanone derivatives as new inhibitors of LuxR-dependent quorum sensing: Synthesis, biological evaluation and binding mode study” (Bioorg Med Chem Lett, 2008)
Calls of active or inactive are those of the source. The rule behind the calls is not given here.

Target: T1, Transcriptional activator protein LuxR (Aliivibrio fischeri, UniProt P12746)
T1 sequence (P12746 whole entry): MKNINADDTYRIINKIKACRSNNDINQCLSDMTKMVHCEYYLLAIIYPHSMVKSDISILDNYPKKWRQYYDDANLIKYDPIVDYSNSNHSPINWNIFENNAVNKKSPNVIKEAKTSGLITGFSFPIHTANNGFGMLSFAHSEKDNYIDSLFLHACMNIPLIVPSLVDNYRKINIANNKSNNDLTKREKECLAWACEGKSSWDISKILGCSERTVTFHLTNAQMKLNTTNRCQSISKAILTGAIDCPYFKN
Assay: Inhibition of LuxR-dependent Vibrio fischeri quorum sensing assessed as reduction in 3-oxo-hexanoyihomoserine-induced bioluminescence

| SMILES | IC50 [µM] |
| --- | --- |
| CCCCCC(=O)NC1=CCOC1=O | 85 |
| O=C(CCCc1ccccc1)NC1=C(Br)COC1=O | 84 |

Continued, values first:

| IC50 [µM] | SMILES |
| --- | --- |
| 55 | CCCC(=O)CC(=O)NC1=CCOC1=O |
| 6.9 | CCCCCC(=O)NC1=C(Cl)COC1=O |
| 6.5 | CCCCCC(=O)NC1=C(Br)COC1=O |

Target: T2, Transcriptional activator protein LuxR (Aliivibrio fischeri) (UniProt P12746)
T2 sequence (whole entry): T1 sequence (P12746 whole entry)
Assay: Inhibition of LuxR-dependent Vibrio fischeri quorum sensing assessed as reduction in 3-oxo-hexanoyihomoserine-induced bioluminescence upto 100 uM

| Activity | SMILES |
| --- | --- |
| inactive | O=C(CCCc1ccccc1)NC1=CCOC1=O |
